Measurements published in ChEMBL document CHEMBL1201862, “PubChem BioAssay data set” (2004).
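Test compounds were applied to cells in 96-well plates for 48 hours at 5 doses. Here, GI50 denotes the concentration required for 50% inhibition of growth.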 The source made the active and inactive calls. No stated cut-off is given here; in the data, active = GI50 up to about 1.1 µM and inactive = higher.

Assays:
Assay in all cases: inhibition of tumour cell growth, NCI panel, 48 h
HL-60 = system: HL-60
HCC 2998 = system: HCC 2998
SW-620 = system: SW-620
SF-539 = system: SF-539
SF-268 = system: SF-268
KM12 = system: KM12
HCT-116 = system: HCT-116
SN12C = system: SN12C
K562 = system: K562
UO-31 = system: UO-31
RXF 393 = system: RXF 393
OVCAR-8 = system: OVCAR-8
M14 = system: M14
A498 = system: A498
CCRF-CEM = system: CCRF-CEM
NCI-H226 = system: NCI-H226
786-0 = system: 786-0
CAKI-1 = system: CAKI-1
SR = system: SR

SMILES: O=S(=O)(c1ccccc1)N1CCC1c1ccccc1 (configuration not stated)
- GI50 (HL-60): 6.34 µM (inactive)
- GI50 (HCC 2998): > 100 µM (inactive)
- GI50 (SW-620): > 100 µM (inactive)
- GI50 (SF-539): > 100 µM (inactive)
- GI50 (SF-268): 87.1 µM (inactive)
- GI50 (KM12): > 100 µM (inactive)
- GI50 (HCT-116): 87.5 µM (inactive)
- GI50 (SN12C): > 100 µM (inactive)
- GI50 (K562): 54.3 µM (inactive)
- GI50 (UO-31): 29.6 µM (inactive)
- GI50 (RXF 393): > 100 µM (inactive)
- GI50 (OVCAR-8): > 100 µM (inactive)
- GI50 (M14): > 100 µM (inactive)
- GI50 (A498): > 100 µM (inactive)
- GI50 (CCRF-CEM): > 100 µM (inactive)
- GI50 (NCI-H226): > 100 µM (inactive)
- GI50 (786-0): > 100 µM (inactive)

SMILES: Oc1c(N2CCOCC2)cc(-c2cc(N3CCOCC3)c(O)c3ccccc23)c2ccccc12
- GI50 (HCC 2998): 2.04 µM (inactive)
- GI50 (SW-620): 2.04 µM (inactive)
- GI50 (SF-539): 2.09 µM (inactive)
- GI50 (SF-268): 3.33 µM (inactive)
- GI50 (KM12): 6.05 µM (inactive)
- GI50 (HCT-116): 2.16 µM (inactive)
- GI50 (SN12C): 1.58 µM (inactive)
- GI50 (K562): 1.88 µM (inactive)
- GI50 (CAKI-1): 2.69 µM (inactive)
- GI50 (UO-31): 1.73 µM (inactive)
- GI50 (RXF 393): 1.56 µM (inactive)
- GI50 (OVCAR-8): 1.6 µM (inactive)
- GI50 (M14): 1.56 µM (inactive)
- GI50 (SR): 0.659 µM (active)
- GI50 (CCRF-CEM): 1.48 µM (inactive)
- GI50 (NCI-H226): 10.1 µM (inactive)
- GI50 (786-0): 1.63 µM (inactive)

SMILES: Sc1ccccc1S
- GI50 (HL-60): > 100 µM (inactive)
- GI50 (HCC 2998): > 100 µM (inactive)
- GI50 (SW-620): > 100 µM (inactive)
- GI50 (SF-268): > 100 µM (inactive)
- GI50 (SN12C): > 100 µM (inactive)
- GI50 (K562): > 100 µM (inactive)
- GI50 (CAKI-1): > 100 µM (inactive)
- GI50 (UO-31): > 10 µM (inactive)
- GI50 (RXF 393): > 100 µM (inactive)
- GI50 (OVCAR-8): > 10 µM (inactive)
- GI50 (M14): > 100 µM (inactive)
- GI50 (786-0): > 100 µM (inactive)

SMILES: O=C(N/C(=C/c1ccc(Cl)cc1)c1nc2ccccc2c(=O)n1Nc1ccc([N+](=O)[O-])cc1[N+](=O)[O-])c1ccccc1
- GI50 (HCC 2998): > 100 µM (inactive)
- GI50 (SW-620): > 100 µM (inactive)
- GI50 (SF-539): > 100 µM (inactive)
- GI50 (KM12): > 100 µM (inactive)
- GI50 (HCT-116): > 100 µM (inactive)
- GI50 (SN12C): > 100 µM (inactive)
- GI50 (K562): > 100 µM (inactive)
- GI50 (CAKI-1): > 100 µM (inactive)
- GI50 (UO-31): > 100 µM (inactive)
- GI50 (OVCAR-8): > 100 µM (inactive)
- GI50 (M14): > 100 µM (inactive)
- GI50 (SR): > 100 µM (inactive)
- GI50 (CCRF-CEM): > 100 µM (inactive)
- GI50 (NCI-H226): > 100 µM (inactive)
- GI50 (786-0): > 100 µM (inactive)

SMILES: CN1CCOC1c1ccccc1O (configuration not stated)
- GI50 (SW-620): > 100 µM (inactive)
- GI50 (SF-539): > 100 µM (inactive)
- GI50 (SF-268): > 100 µM (inactive)
- GI50 (KM12): > 100 µM (inactive)
- GI50 (HCT-116): > 100 µM (inactive)
- GI50 (K562): > 100 µM (inactive)
- GI50 (CAKI-1): > 100 µM (inactive)
- GI50 (UO-31): > 100 µM (inactive)
- GI50 (RXF 393): > 100 µM (inactive)
- GI50 (OVCAR-8): > 100 µM (inactive)
- GI50 (M14): > 100 µM (inactive)
- GI50 (A498): > 100 µM (inactive)
- GI50 (SR): > 100 µM (inactive)
- GI50 (CCRF-CEM): > 100 µM (inactive)
- GI50 (NCI-H226): > 100 µM (inactive)
- GI50 (786-0): > 100 µM (inactive)

SMILES: N#C[C-](C#N)[n+]1ccc(Cl)cc1
- GI50 (HL-60): 4.27 µM (inactive)
- GI50 (SW-620): 10.9 µM (inactive)
- GI50 (SF-539): 20.4 µM (inactive)
- GI50 (SF-268): 14.4 µM (inactive)
- GI50 (KM12): 23.3 µM (inactive)
- GI50 (HCT-116): 14.5 µM (inactive)
- GI50 (SN12C): 14.4 µM (inactive)
- GI50 (K562): 3.03 µM (inactive)
- GI50 (CAKI-1): 3.53 µM (inactive)
- GI50 (UO-31): 22.8 µM (inactive)
- GI50 (RXF 393): 16.7 µM (inactive)
- GI50 (OVCAR-8): 17.1 µM (inactive)
- GI50 (M14): 17 µM (inactive)
- GI50 (A498): 28.7 µM (inactive)
- GI50 (SR): 14.4 µM (inactive)
- GI50 (CCRF-CEM): 9.27 µM (inactive)
- GI50 (NCI-H226): 25.3 µM (inactive)
- GI50 (786-0): 18.7 µM (inactive)

SMILES: COS(=O)CCOC(=O)c1ccccc1SSc1ccccc1C(=O)OCCS(=O)OC (configuration not stated)
- GI50 (SW-620): 31 µM (inactive)
- GI50 (SF-539): 25.3 µM (inactive)
- GI50 (SF-268): 32.3 µM (inactive)
- GI50 (KM12): 27.1 µM (inactive)
- GI50 (SN12C): 26.1 µM (inactive)
- GI50 (K562): 20.6 µM (inactive)
- GI50 (CAKI-1): 27.2 µM (inactive)
- GI50 (UO-31): 15.5 µM (inactive)
- GI50 (RXF 393): 14.2 µM (inactive)
- GI50 (OVCAR-8): 22.3 µM (inactive)
- GI50 (M14): 20 µM (inactive)
- GI50 (A498): > 100 µM (inactive)
- GI50 (CCRF-CEM): 3.79 µM (inactive)
- GI50 (786-0): 20.3 µM (inactive)

SMILES: Nc1nc(CCc2n[nH]c(N)n2)n[nH]1
- GI50 (HL-60): > 100 µM (inactive)
- GI50 (HCC 2998): > 100 µM (inactive)
- GI50 (SW-620): > 100 µM (inactive)
- GI50 (SF-539): > 100 µM (inactive)
- GI50 (SF-268): > 100 µM (inactive)
- GI50 (KM12): > 100 µM (inactive)
- GI50 (HCT-116): > 100 µM (inactive)
- GI50 (SN12C): > 100 µM (inactive)
- GI50 (K562): > 100 µM (inactive)
- GI50 (CAKI-1): > 100 µM (inactive)
- GI50 (UO-31): > 100 µM (inactive)
- GI50 (RXF 393): > 100 µM (inactive)
- GI50 (OVCAR-8): > 100 µM (inactive)
- GI50 (M14): > 100 µM (inactive)
- GI50 (A498): > 100 µM (inactive)
- GI50 (CCRF-CEM): > 100 µM (inactive)
- GI50 (NCI-H226): > 100 µM (inactive)
- GI50 (786-0): > 100 µM (inactive)
